Source: the NIST ThermoML archive (doi:10.1016/j.jct.2012.09.028)
± gives the expanded uncertainty stated by the source.

Conditions: 101.33 kPa, Crystal, Vacuum adiabatic calorimetry

`O=C[C@H](O)[C@@H](O)[C@H](O)CO` [D-xylose] gave a molar entropy (0.5 K) of 0.0002783 J/K/mol, a molar entropy (1 K) of 0.0007579 J/K/mol and a molar entropy (1.5 K) of 0.001652 J/K/mol. The molar entropy (2 K) was 0.003197 J/K/mol, the molar entropy (2.5 K) was 0.005661 J/K/mol and the molar entropy (3 K) was 0.009356 ± 0.015 J/K/mol. The molar entropy (3.5 K) was 0.01464 ± 0.015 J/K/mol, the molar entropy (4 K) was 0.02194 ± 0.015 J/K/mol and the molar entropy (4.5 K) was 0.0317 ± 0.015 J/K/mol. It also gave a molar entropy (5 K) of 0.04448 ± 0.016 J/K/mol, a molar entropy (5.5 K) of 0.06082 ± 0.016 J/K/mol and a molar entropy (6 K) of 0.08137 ± 0.016 J/K/mol. The molar entropy (6.5 K) was 0.1068 ± 0.016 J/K/mol, the molar entropy (7 K) was 0.1377 ± 0.017 J/K/mol and the molar entropy (7.5 K) was 0.1749 ± 0.017 J/K/mol. For the same compound, the molar entropy (8 K) was 0.219 ± 0.018 J/K/mol, the molar entropy (8.5 K) was 0.2706 ± 0.018 J/K/mol and the molar entropy (9 K) was 0.3303 ± 0.019 J/K/mol. For the same compound, the molar entropy (9.5 K) was 0.3987 ± 0.02 J/K/mol, the molar entropy (10 K) was 0.4763 ± 0.021 J/K/mol and the molar entropy (11 K) was 0.6598 ± 0.023 J/K/mol. It also gave a molar entropy (12 K) of 0.8803 ± 0.025 J/K/mol, a molar entropy (13 K) of 1.138 ± 0.028 J/K/mol and a molar entropy (14 K) of 1.432 ± 0.03 J/K/mol. It also gave a molar entropy (15 K) of 1.761 ± 0.033 J/K/mol, a molar entropy (16 K) of 2.122 ± 0.036 J/K/mol and a molar entropy (17 K) of 2.515 ± 0.04 J/K/mol. For the same compound, the molar entropy (18 K) was 2.935 ± 0.043 J/K/mol, the molar entropy (19 K) was 3.383 ± 0.045 J/K/mol and the molar entropy (20 K) was 3.854 ± 0.048 J/K/mol. It also gave a molar entropy (25 K) of 6.505 ± 0.06 J/K/mol, a molar entropy (30 K) of 9.489 ± 0.089 J/K/mol and a molar entropy (35 K) of 12.65 ± 0.099 J/K/mol. The molar entropy (40 K) was 15.88 ± 0.11 J/K/mol, the molar entropy (45 K) was 19.14 ± 0.12 J/K/mol and the molar entropy (50 K) was 22.41 ± 0.13 J/K/mol. For the same compound, the molar entropy (55 K) was 25.66 ± 0.14 J/K/mol, the molar entropy (60 K) was 28.89 ± 0.15 J/K/mol and the molar entropy (65 K) was 32.12 ± 0.16 J/K/mol. The molar entropy (70 K) was 35.35 ± 0.17 J/K/mol, the molar entropy (75 K) was 38.56 ± 0.18 J/K/mol and the molar entropy (80 K) was 41.77 ± 0.19 J/K/mol. It also gave a molar entropy (85 K) of 44.96 ± 0.2 J/K/mol, a molar entropy (90 K) of 48.15 ± 0.37 J/K/mol and a molar entropy (95 K) of 51.33 ± 0.38 J/K/mol. It also gave a molar entropy (100 K) of 54.5 ± 0.38 J/K/mol, a molar entropy (110 K) of 60.81 ± 0.39 J/K/mol and a molar entropy (120 K) of 67.1 ± 0.4 J/K/mol. For the same compound, the molar entropy (130 K) was 73.34 ± 0.41 J/K/mol, the molar entropy (140 K) was 79.56 ± 0.42 J/K/mol and the molar entropy (150 K) was 85.75 ± 0.43 J/K/mol. The molar entropy (160 K) was 91.91 ± 0.44 J/K/mol, the molar entropy (170 K) was 98.05 ± 0.45 J/K/mol and the molar entropy (180 K) was 104.16 ± 0.46 J/K/mol. It also gave a molar entropy (190 K) of 110.25 ± 0.47 J/K/mol, a molar entropy (200 K) of 116.32 ± 0.47 J/K/mol and a molar entropy (210 K) of 122.38 ± 0.48 J/K/mol. The molar entropy (220 K) was 128.42 ± 0.49 J/K/mol, the molar entropy (230 K) was 134.45 ± 0.5 J/K/mol and the molar entropy (240 K) was 140.47 ± 0.51 J/K/mol. For the same compound, the molar entropy (250 K) was 146.47 ± 0.52 J/K/mol, the molar entropy (260 K) was 152.47 ± 0.53 J/K/mol and the molar entropy (270 K) was 158.46 ± 0.54 J/K/mol. It also gave a molar entropy (273.15 K) of 160.35 ± 0.54 J/K/mol, a molar entropy (280 K) of 164.44 ± 0.55 J/K/mol and a molar entropy (290 K) of 170.42 ± 0.56 J/K/mol. For the same compound, the molar entropy (298.15 K) was 175.29 ± 0.56 J/K/mol and the molar entropy (300 K) was 176.4 ± 0.56 J/K/mol.
